From patent publication US20100267561A1, “HERBICIDAL PYRIDAZINONE DERIVATIVES” (priority 2007, published 2010)
Where two headings read alike, the source gives them in different places.

Legend:
Test in all cases: Test B pre-/postemergence plant response
Format in all cases: in vivo
[1] = test system: Italian ryegrass (Lolium multiflorum); conditions: Lolium multiflorum, read-out: Plant response rating, Ryegrass, Italian; for pest or weed control at 31 g/ha: 31 g ai/ha, 100 complete control; for pest or weed control at 62 g/ha: 62 g ai/ha; for pest or weed control at 62 g/ha / pest or weed control at 125 g/ha / pest or weed control at 250 g/ha: scale 0 to 100; for pest or weed control at 125 g/ha: 125 g ai/ha; for pest or weed control at 250 g/ha: 250 g ai/ha
From the text: (§1) Seeds of plant species selected from blackgrass (Alopecurus myosuroides), downy bromegrass (Bromus tectorum), green foxtail (Setaria viridis), Italian ryegrass (Lolium multiflorum), wheat (Triticum aestivum), wild oat (Avena fatua), catchweed bedstraw (Galium aparine), bermudagrass (Cynodon dactylon), surinam grass (Brachiaria decumbens), cocklebur (Xanthium strumarium), corn (Zea mays), large crabgrass (Digitaria sanguinalis), woolly cupgrass (Eriochloa villosa), giant foxtail (Setaria faberii), goosegrass (Eleusine indica), johnsongrass (Sorghum halepense), kochia (Kochia scoparia), lambsquarters (Chenopodium album), morningglory (Ipomoea coccinea), eastern black (E.B.) nightshade (Solanum ptycanthum), yellow nutsedge (Cyperus esculentus), pigweed (Amaranthus retroflexus), common ragweed (Ambrosia elation), Russian thistle (Salsola iberica), soybean (Glycine max), common (oilseed) sunflower (Helianthus annuus), and velvetleaf (Abutilon theophrasti) were planted and treated preemergence with test chemicals formulated in a non-phytotoxic solvent mixture which included a surfactant.
(§2) At the same time, plants selected from these crop and weed species and also winter barley (Hordeum vulgare), canarygrass (Phalaris minor), chickweed (Stellaria media) and windgrass (Apera spica-venti) were treated with postemergence applications of some of the test chemicals formulated in the same manner. Plants ranged in height from 2 to 18 cm (1- to 4-leaf stage) for postemergence treatments.
(§3) Plant species in the flooded paddy test consisted of rice (Oryza sativa), umbrella sedge (Cyperus difformis), ducksalad (Heteranthera limosa) and barnyardgrass (Echinochloa crus-galli) grown to the 2-leaf stage for testing. At time of treatment, test pots were flooded to 3 cm above the soil surface, treated by application of test compounds directly to the paddy water, and then maintained at that water depth for the duration of the test. Treated plants and controls were maintained in a greenhouse for 13 to 15 days, after which time all species were compared to controls and visually evaluated. Plant response ratings, summarized in Table B, are based on a scale of 0 to 100 where 0 is no effect and 100 is complete control. A dash (-) response means no test result.

[2] = test system: bermudagrass (Cynodon dactylon); conditions: for pest or weed control at 31 g/ha: 31 g ai/ha, 100 complete control; for pest or weed control at 62 g/ha: 62 g ai/ha; for pest or weed control at 125 g/ha: 125 g ai/ha
From the text: as §1, §2, §3

[3] = test system: corn (Zea mays); conditions: Zea mays; for Corn plant response rating (crop injury, 0 = no effect, 100 = complete kill) at 31 g/ha: 31 g ai/ha, 100 complete control; for Corn plant response rating (crop injury, 0 = no effect, 100 = complete kill) at 62 g/ha: 62 g ai/ha; for Corn plant response rating (crop injury, 0 = no effect, 100 = complete kill) at 62 g/ha / Corn plant response rating (crop injury, 0 = no effect, 100 = complete kill) at 125 g/ha / Corn plant response rating (crop injury, 0 = no effect, 100 = complete kill) at 250 g/ha: scale 0 to 100; for Corn plant response rating (crop injury, 0 = no effect, 100 = complete kill) at 125 g/ha: 125 g ai/ha; for Corn plant response rating (crop injury, 0 = no effect, 100 = complete kill) at 250 g/ha: 250 g ai/ha
From the text: as §1, §2, §3

[4] = test system: downy bromegrass (Bromus tectorum); conditions: Bromus tectorum, read-out: Plant response rating, Bromegrass, Downy; for pest or weed control at 31 g/ha: 31 g ai/ha, 100 complete control; for pest or weed control at 62 g/ha: 62 g ai/ha; for pest or weed control at 125 g/ha: 125 g ai/ha; for pest or weed control at 250 g/ha: 250 g ai/ha
From the text: as §1, §2, §3

[5] = test system: eastern black (E.B.) nightshade (Solanum ptycanthum); conditions: Solanum, pre-emergence, Preemergence, read-out: Plant response rating, Nightshade, E. B.
From the text: as §1, §2, §3

[6] = test system: green foxtail (Setaria viridis); conditions: Setaria viridis, read-out: Plant response rating, Foxtail, Green; for pest or weed control at 31 g/ha: 31 g ai/ha, 100 complete control; for pest or weed control at 62 g/ha: 62 g ai/ha; for pest or weed control at 62 g/ha / pest or weed control at 125 g/ha / pest or weed control at 250 g/ha: scale 0 to 100; for pest or weed control at 125 g/ha: 125 g ai/ha; for pest or weed control at 250 g/ha: 250 g ai/ha
From the text: as §1, §2, §3

[7] = test system: kochia (Kochia scoparia); conditions: Postemergence
From the text: as §1, §2, §3

[8] = post-emergence, Postemergence, scale 0 to 100, 0 no effect
[9] = pre-emergence, Preemergence, 0 to 100 scale, 0 no effect
[10] = Cynodon dactylon, post-emergence, Postemergence, scale 0 to 100, read-out: Plant response rating, Bermudagrass
[11] = Cynodon dactylon, pre-emergence, Preemergence, scale 0 to 100, read-out: Plant response rating, Bermudagrass
[12] = post-emergence, Postemergence, scale 0 to 100
[13] = pre-emergence, Preemergence, scale 0 to 100

Cc1cc(-c2ccc(C(F)(F)F)cc2)nn1-c1c(O)cnn(C)c1=O [Compound 1, 5-hydroxy-2-methyl-4-[5-methyl-3-[4-(trifluoromethyl)phenyl]-1H-pyrazol-1-yl]-3(2H)-pyridazinone]
100: Bermudagrass plant response rating ([2]; 250 g ai/ha, preemergence, 0-100 scale)
100%: pest or weed control at 62 g/ha ([1]; post-emergence, Postemergence) | pest or weed control at 125 g/ha ([1]; post-emergence, Postemergence) | pest or weed control at 250 g/ha ([1]; post-emergence, Postemergence) | pest or weed control at 62 g/ha ([1]; pre-emergence, Preemergence) | pest or weed control at 125 g/ha ([1]; pre-emergence, Preemergence) | pest or weed control at 250 g/ha ([1]; pre-emergence, Preemergence) | pest or weed control at 31 g/ha ([2]; Cynodon dactylon, post-emergence, Postemergence, scale 0 to 100, 0 no effect, read-out: Plant response rating, Bermudagrass) | pest or weed control at 62 g/ha [2, 10] | pest or weed control at 125 g/ha [2, 10] | pest or weed control at 250 g/ha ([2]; Cynodon dactylon, post-emergence, Postemergence, 250 g ai/ha, scale 0 to 100, read-out: Plant response rating, Bermudagrass) | pest or weed control at 31 g/ha ([2]; Cynodon dactylon, pre-emergence, Preemergence, 0 to 100 scale, 0 no effect, read-out: Plant response rating, Bermudagrass) | pest or weed control at 62 g/ha [2, 11] | pest or weed control at 125 g/ha [2, 11] | Corn plant response rating (crop injury, 0 = no effect, 100 = complete kill) at 62 g/ha ([3]; post-emergence, Postemergence) | Corn plant response rating (crop injury, 0 = no effect, 100 = complete kill) at 125 g/ha ([3]; post-emergence, Postemergence) | Corn plant response rating (crop injury, 0 = no effect, 100 = complete kill) at 250 g/ha ([3]; post-emergence, Postemergence) | Corn plant response rating (crop injury, 0 = no effect, 100 = complete kill) at 125 g/ha ([3]; pre-emergence, Preemergence) | Corn plant response rating (crop injury, 0 = no effect, 100 = complete kill) at 250 g/ha ([3]; pre-emergence, Preemergence) | pest or weed control at 250 g/ha [4, 12] | pest or weed control at 62 g/ha ([6]; post-emergence, Postemergence) | pest or weed control at 125 g/ha ([6]; post-emergence, Postemergence) | pest or weed control at 250 g/ha ([6]; post-emergence, Postemergence) | pest or weed control at 31 g/ha [6, 9] | pest or weed control at 62 g/ha ([6]; pre-emergence, Preemergence) | pest or weed control at 125 g/ha ([6]; pre-emergence, Preemergence) | pest or weed control at 250 g/ha ([6]; pre-emergence, Preemergence)
90%: Corn plant response rating (crop injury, 0 = no effect, 100 = complete kill) at 31 g/ha [3, 9]
0%: pest or weed control at 31 g/ha ([5]; 31 g ai/ha, 0 to 100 scale, 0 no effect, 100 complete control) | pest or weed control at 62 g/ha ([5]; 62 g ai/ha, scale 0 to 100) | pest or weed control at 125 g/ha ([5]; 125 g ai/ha, scale 0 to 100) | pest or weed control at 250 g/ha ([5]; 250 g ai/ha, scale 0 to 100)
80%: pest or weed control at 31 g/ha [1, 9] | pest or weed control at 62 g/ha [4, 13] | pest or weed control at 125 g/ha [4, 13]
0: Plant response rating, Kochia ([7]; 31 g ai/ha, scale 0 to 100, 0 no effect, 100 complete control) | Plant response rating, Kochia ([7]; 62 g ai/ha, scale 0 to 100) | Plant response rating, Kochia ([7]; 125 g ai/ha, scale 0 to 100)
95%: pest or weed control at 31 g/ha [1, 8] | Corn plant response rating (crop injury, 0 = no effect, 100 = complete kill) at 62 g/ha ([3]; pre-emergence, Preemergence) | pest or weed control at 125 g/ha [4, 12] | pest or weed control at 250 g/ha ([4]; pre-emergence, Preemergence, scale 0 to 100 (0 no effect, 100 complete control)) | pest or weed control at 31 g/ha [6, 8]
30%: pest or weed control at 31 g/ha [4, 8]
40%: pest or weed control at 31 g/ha [4, 9]
10%: Corn plant response rating (crop injury, 0 = no effect, 100 = complete kill) at 31 g/ha [3, 8]
60%: pest or weed control at 62 g/ha [4, 12]
